Reference: patent US20240299476A1, “USE OF A BIRNAVIRUS ALONE OR IN COMBINATION THERAPY FOR THE TREATMENT OF CANCER” (Probiogen AG, priority 2020, published 2024)

Experiments:
[1] = test system: stage IV hilar cholangiocarcinoma; assay: Compassionate use case report: cholangiocarcinoma; format: in vivo, human; settings: same patient before IBDV; agents added to ongoing low-dose chemotherapy; CA19-9 at diagnosis 2,729
Description: A person approached the clinic for treatment of resistant stage IV hilar cholangiocarcinoma, CK7 positive, CK20 negative with confirmed peritoneal metastatic disease. During 2016 patient developed unexplained weight loss of approximately 10 kg, night pruritus. […] In January 2017 jaundice developed. Blood test on 19 Mar. […] Considering tumor location and potential involvement of both right and left lobes, no surgical procedure was considered, except liver transplantation. On 10 Apr. 2017 a biliary stent was introduced for drainage of rising levels of bilirubin >14 mg/dL. On 13 Apr. 2017 abdominal exploratory laparoscopy reviled peritoneal metastases and conventional chemotherapy was recommended but the patient preferred synergic combination of low doses of gemcitabine, leucovorin, fluorouracil, irinotecan and oxaliplatin administered over 48 h period every two weeks. After discovery of 2 mutations on BRCA1 (Exon 10/V9201) and BRCA2 (Exon 11/N2113S) it was decided to add PARP inhibitor and on 24 Jul. 2017 rucaparib was added and CA19-9 dropped to 287 IU/mL. CA19-9 increased following administration of nivolumab but stabilized at 250 IU/mL by adding abraxane, gemcitabine and oxaliplatin. Following addition of Erbitux and later on combinations of low-dose (1.0 mg/kg) ipilimumab and nivolumab (2 mg/kg) CA19-9 levels dropped from 369 IU/mL to normal levels. […]

AGE1.CR.PIX = assay: IBDV replication with or without 5 mM 2-aminopurin, TCID50 titration, AGE1.CR.PIX; format: cell-based, duck; settings: AGE1.CR.PIX (normal RAS), IBDV MOI 0.05, 5 mM 2-AP versus none, 96 h
Experimental: (§1) FIG. 2: Enhancement of IBDV replication following treatment with 2-aminopurin in cell lines with normal RAS function (HEK293, AGE1.CR.PIX) but not in a RAS defective cell line (A549). Cells were infected with IBDV at MOI 0.05 either in the presence of 5 mM 2-aminopurin (2-AP) or without, cells together with supernatant were lysed by 3× freeze/thaw steps, cell debris was removed by centrifugation and the virus titer was quantified by TCID50.
(§2) Because susceptibility varies among cell lines, the positive impact of a RAS defect on IBDV replication has to be shown comparing cells of the same type with a specific propensity to replicate IBDV with normal and defect RAS function. Such RAS defect can be simulated in a cell line with normal RAS when cells are treated with 2-aminopurin. The drug prevents phosphorylation of protein kinase PKR that is prevented in cells with a RAS defect. The effect of 2-aminopurin on IBDV replication is studied in cell lines with (A549) and without a RAS mutation (AGE1.CR.PIX, HEK293).
(§3) HEK 293, A549, and AGE1.CR.pIX cells were infected with IBDV at MOI 0.05 either in the presence of 5 mM 2-aminopurin (2-AP) or without. […] Subsequently, the virus titer was quantified by TCID50 titration in different dilutions using adherent AGE1.CR.PIX cells. Based on the cytopathic effect (CPE) the TCID50 titer was evaluated 72 hours post infection (FIG. 2).

HEK293 = assay: IBDV replication with or without 5 mM 2-aminopurin, TCID50 titration, HEK293; format: cell-based; settings: HEK293 (normal RAS), IBDV MOI 0.05, 5 mM 2-AP versus none, 96 h
Experimental: as §1, §2, §3

A549 = assay: IBDV replication with or without 5 mM 2-aminopurin, TCID50 titration, A549 (RAS mutant); format: cell-based, human; settings: IBDV MOI 0.05, 5 mM 2-AP versus none, 96 h
Experimental: as §1, §2, §3

| Molecule | Tumor marker CA19-9 level after adding the agent (earlier therapy, patient history) [1] | Enhancement of IBDV replication (virus titer, TCID50) (AGE1.CR.PIX) | Enhancement of IBDV replication (virus titer, TCID50) (HEK293) | Effect on IBDV replication (virus titer, TCID50) (A549) |
| --- | --- | --- | --- | --- |
| CNCc1ccc(-c2[nH]c3cc(F)cc4c3c2CCNC4=O)cc1 [rucaparib] | 287 IU/mL | – | – | – |
| nivolumab | increased | – | – | – |
| Nc1ncc2[nH]cnc2n1 [2-aminopurine] | – | approximately 10 fold | approximately 10 fold | no benefit |
